# Patent publication US20250020635A1, “ASSAY METHODS AND USES THEREOF FOR SCREENING ALZHEIMER'S DISEASE TREATMENT COMPOUNDS” (priority 2023, published 2025)
# Read-outs that look alike come from different tables or passages of the source.
# Molecular target: T1, PLCγ2-HiBit (Homo sapiens, UniProt P16885)
# T1 construct: expressed in transfected cells; host or cells: HMC3 cells
# T1 sequence (P16885 1-1265): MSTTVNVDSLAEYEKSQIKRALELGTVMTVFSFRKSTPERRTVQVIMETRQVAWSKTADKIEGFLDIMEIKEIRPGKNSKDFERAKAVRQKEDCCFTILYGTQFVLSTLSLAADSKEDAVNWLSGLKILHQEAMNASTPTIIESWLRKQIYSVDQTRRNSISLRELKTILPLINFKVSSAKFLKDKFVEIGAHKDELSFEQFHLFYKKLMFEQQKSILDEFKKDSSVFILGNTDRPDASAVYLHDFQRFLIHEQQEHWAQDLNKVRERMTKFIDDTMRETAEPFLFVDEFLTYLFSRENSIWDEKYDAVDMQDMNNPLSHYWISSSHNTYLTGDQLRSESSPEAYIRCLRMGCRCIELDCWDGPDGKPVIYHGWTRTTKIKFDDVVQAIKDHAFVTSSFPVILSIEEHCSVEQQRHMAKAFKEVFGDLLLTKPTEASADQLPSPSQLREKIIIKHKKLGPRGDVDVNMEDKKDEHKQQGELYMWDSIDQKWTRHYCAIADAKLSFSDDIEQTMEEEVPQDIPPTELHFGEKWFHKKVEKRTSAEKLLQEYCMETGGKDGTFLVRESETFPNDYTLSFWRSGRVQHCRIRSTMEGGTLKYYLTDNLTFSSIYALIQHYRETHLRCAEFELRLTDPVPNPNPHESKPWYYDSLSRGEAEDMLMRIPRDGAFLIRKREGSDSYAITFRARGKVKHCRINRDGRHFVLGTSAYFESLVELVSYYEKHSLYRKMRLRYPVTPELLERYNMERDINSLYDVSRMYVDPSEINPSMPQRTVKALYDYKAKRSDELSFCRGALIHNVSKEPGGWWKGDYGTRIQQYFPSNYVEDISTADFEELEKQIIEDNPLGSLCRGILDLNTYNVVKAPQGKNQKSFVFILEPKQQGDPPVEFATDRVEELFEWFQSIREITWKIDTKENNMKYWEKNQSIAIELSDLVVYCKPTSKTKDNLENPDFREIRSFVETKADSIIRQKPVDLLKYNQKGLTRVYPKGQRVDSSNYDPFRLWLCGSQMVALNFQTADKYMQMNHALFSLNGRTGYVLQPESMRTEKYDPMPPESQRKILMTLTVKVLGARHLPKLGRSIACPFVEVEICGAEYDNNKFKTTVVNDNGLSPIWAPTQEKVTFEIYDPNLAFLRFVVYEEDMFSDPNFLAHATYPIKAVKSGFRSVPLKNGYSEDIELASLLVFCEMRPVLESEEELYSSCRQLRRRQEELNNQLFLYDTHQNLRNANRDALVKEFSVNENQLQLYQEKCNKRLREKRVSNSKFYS
# Assay: Cellular thermal shift assay (SplitLuc CETSA), PLCγ2-HiBit in HMC3 cells
# Type: cell-based
# Conditions: for PLCγ2-HiBit %, percent luminescence at highest dose compared to control (DMSO): 100 μM
# Excerpt: These compounds have been evaluated using a wide variety of assay classes namely target engagement utilizing cellular thermal shift assay (CETSA),^34 affinity selection mass spectrometry (ASMS),^35 biochemical activity employing the fluorogenic probe XY-69,^36 and cellular activity testing for phagocytosis. Cellular Thermal Shift Assays (CETSA) assess cellular target engagement by quantifying changes in protein thermal stability upon ligand binding to endogenous proteins in intact cells.^34 For SAR studies, a split Nano Luciferase (SplitLuc CETSA) version of the assay was utilized to provide sufficient throughput.^37,38 HMC3 cells were stably transfected with PLCγ2-HiBit to enable protein expression in a physiologically relevant cellular context. The thermal stability of this HiBit-labeled protein in intact cells was measured in the following two formats. In the initial screen, using 96-well plates, cells were treated with FBS analogs at a single concentration (100 μM) at 37° C. for 60 min and then exposed to a 3-minute isothermal heating step at 45.9° C. (experimentally determined Tm of PLCγ2-HiBit). Luminescence detection was then conducted with the Nano-Glo HiBit Lytic detection kit (Promega, Cat. N3040).^38 Compound treatment was performed in triplicate, and raw signals were normalized to the mean of the controls (in the same plate) as % of control. When the difference in compound-treated cells >control mean+3SD, the compound was considered positive and selected for further testing with dose-response CETSA. In the dose response CETSA, cells were treated with decreasing concentrations from 100 μM with 1:3 serial dilutions to generate an 8-point curve. An AC50 was calculated with the % of control data using a four-parameter logistic curve regression model, and the percent luminescence remaining at the highest concentration is also reported for the compounds when the difference from the DMSO control is greater than 3× the standard deviation (SD). Otherwise, an AC50 was not calculated.
Compound,"PLCγ2-HiBit %, percent luminescence at highest dose compared to control (DMSO) [%]",PLCy2-HiBit % @100 (Table 1) [%],"AC50 (Table 1, CETSA dose response, read-out: AC50) [µM]","AC50 (Table 5, 8-point dose response from 100 μM, HMC3 cells, 45.9° C., read-out: AC50, concentration that induced a half-maximum loss of luminesce compared to control) [µM]"
"Cc1cc(C)c(S(=O)(=O)Nc2cccc(C(F)(F)F)c2)c(C)c1 [Compound 1, 2,4,6-trimethyl-N-(meta-3-trifluoromethyl-phenyl)-benzenesulfonamide, reference compound]",105,105,,
"Cc1cc(C)c(S(=O)(=O)Nc2ccccc2C(F)(F)F)c(C)c1 [Compound 2, o-3M3FBS, reference compound]",102,102,,
O=S(=O)(Nc1ccc(Br)cc1F)c1cccs1 [Compound 8],66,66,> 100,> 100
Cc1cc(C)c(S(=O)(=O)NC2CCCNC2)c(C)c1 (stereo not drawn) [Compound 11],64,,,
